Our source for the EC50 values is patent US12552811B2, “Immunosuppressant, and preparation method therefor and use thereof” (Abbisko Therapeutics Co., Ltd., priority 2020, dated 2026).

Structures are written as SMILES.

As a reminder, the EC50 is the concentration giving half of the maximal effect.

The nature of the assay: Jurkat reporter gene cellular assay. As to conditions: Homo sapiens; Jurkat/NF-κB-luc/PD1 + Raji-PD-L1 coculture, OKT3 1 μg/mL, 6 hrs, activation fold; read-out: Cell Activity EC50. In kind it is cell-based. The procedure:
The effect of compounds of the examples of the present invention and positive compounds on the interaction between PD-1 and PD-L1 expressed on cell surfaces, and the related influence on T cell functions, were determined by a Jurkat reporter gene cellular assay.
Briefly, the reporter gene plasmid of NF-κB-luc and the plasmid of human PD-1 were transfected into Jurkat cells to establish a stably transfected cell line capable of stably expressing both PD-1 and NF-κB-Luc reporter genes; the expression level of PD-1 on the cell surface was confirmed by flow cytometry; and the expression of the reporter gene was confirmed via the response of the reporter gene stimulated by OKT-3 and Raiji cells.
In addition, the plasmid of human PD-L1 was transfected into Raji cells to obtain a cell line capable of stably expressing PD-L1. Jurkat/NF-κB-luc/PD1 cells and Raji-PD-L1 cells were then cocultured and stimulated with OKT-3. On this basis, the compounds were added, and the enhancement of the signal pathway of T cell activation by the inhibitory effect of the compounds on the interaction between PD-1 and PD-L1 was evaluated by readings of reporter gene responses. The specific experimental process was as follows: • 1) 30 μL of compound or antibody solution was added to each well of a white 96-well plate (coming, 3610) at different diluted concentrations, and 10 μL of OKT3 (Biolegend, 317326) was then added (the final concentration of OKT3: 1 μg/mL); • 2) 20 μL of Raji-PD-L1 cell suspension was added to each well with 5*10^4 cells for each well, and was incubated in an incubator for 20 min: • 3) 20 μL of Jurkat/NF-κb-luc/PD-1 cell suspension was added to each well with 5*10^4 cells for each well, and well mixed, and 6 hrs later, Bright-glo (Promega, E2620) was applied and plates were read on Envision; • 4) The reading of each well treated with the compound was compared with the reading of each well treated with DMSO to obtain the activation fold of the compound; • 5) EC50 values of compounds and positive compounds of the examples of the present invention were determined by non-linear regression analysis of activation folds at different compound concentrations.
On the technique in general: A reporter such as luciferase makes a cellular process visible.
`Cn1c(C(=O)Nc2cccc(-c3cccc(NC(=O)c4cc5c(cn4)CN(CCC(C)(C)O)CC5)c3Cl)c2Cl)nc2c1CCN(CCC13CCC(C(=O)O)(CC1)C3)C2` [Example 13, 4-(2-(2-((2,2′-dichloro-3′-(7-(3-hydroxy-3-methylbutyl)-5,6,7,8-tetrahydro-2,7-naphthyridine-3-carboxamido)-[1,1′-biphenyl]-3-yl)carbamoyl)-1-methyl-1,4,6,7-tetrahydro-5H-imidazo[4,5-c]pyridin-5-yl)ethyl)bicyclo[2.2.1]heptane-1-carboxylic acid]: the EC50 is 0.0789 µM.

Turning to `CC(C)N1CCc2cc(C(=O)Nc3cccc(-c4cccc(NC(=O)c5nc6c(n5C)CCN(CC57CCC(C(=O)O)(CC5)C7)C6)c4Cl)c3Cl)ncc2C1` [Example 19, 4-((2-((2,2′-dichloro-3′-(7-isopropyl-5,6,7,8-tetrahydro-2,7-naphthyridine-3-carboxamido)-[1,1′-biphenyl]-3-yl)carbamoyl)-1-methyl-1,4,6,7-tetrahydro-5H-imidazo[4,5-c]pyridin-5-yl)methyl)bicyclo[2.2.1] heptane-1-carboxylic acid], the EC50 was 0.0588 µM. In the case of `Cc1c(/C=C(\F)c2cc3c(cn2)CN(CCC24CCC(C(=O)O)(CC2)C4)CC3)cccc1-c1cccc(Nc2nccc3cc(CNC[C@@H]4CCC(=O)N4)cnc23)c1C` [Example 74, (S,Z)-4-(2-(6-(2-(2,2′-dimethyl-3′-((3-((((5-oxopyrrolidin-2-yl)methyl)amino)methyl)-1,7-naphthyridin-8-yl)amino)-[1,1′-biphenyl]-3-yl)-1-fluorovinyl)-3,4-dihydro-2,7-naphthyridin-2(1H)-yl)ethyl)bicyclo [2.2.1]heptane-1-carboxylic acid], the EC50 came out at 1.4 µM. As for `Cn1c(C(=O)Nc2cccc(-c3cccc(NC(=O)c4cc5c(cn4)CN([C@H]4CC[C@H](O)CC4)CC5)c3Cl)c2Cl)nc2c1CCN(CCC13CCC(C(=O)O)(CC1)C3)C2` [Example 63, 4-(2-(2-((2,2′-dichloro-3′-(7-((1R,4R)-4-hydroxycyclohexyl)-5,6,7,8-tetrahydro-2,7-naphthyridine-3-carboxamido)-[1,1′-biphenyl]-3-yl)carbamoyl)-1-methyl-1,4,6,7-tetrahydro-5H-imidazo[4,5-c]pyridin-5-yl)ethyl)bicyclo[2.2.1]heptane-1-carboxylic acid], the EC50 turned out to be 0.104 µM. As for `CC(C)N1CCc2cc(C(=O)Nc3cccc(-c4cccc(NC(=O)c5cc6c(cn5)CN(C(C)C)CC6)c4Cl)c3Cl)ncc2C1` [Example 66], the EC50 was above 10 µM.

Consider `CC(C)N1CCc2cc(/C(F)=C/c3cccc(-c4cccc(Nc5nccc6cc(CN[C@H](CO)C(=O)O)cnc56)c4Cl)c3Cl)ncc2C1` [Example 71, (Z)-((8-((2,2′-dichloro-3′-(2-fluoro-2-(7-isopropyl-5,6,7,8-tetrahydro-2,7-naphthyridin-3-yl)vinyl)-[1,1′-biphenyl]-3-yl)amino)-1,7-naphthyridin-3-yl)methyl)-D-serine], for which the EC50 was determined as 0.772 µM. Turning to `CC(C)N1CCc2cc(C(=O)Nc3cccc(-c4cccc(NC(=O)c5ccc6c(n5)CCN(CCC57CCC(C(=O)O)(CC5)C7)C6)c4Cl)c3Cl)ncc2C1` [Example 69, 4-(2-(2-((2,2′-dichloro-3′-(7-isopropyl-5,6,7,8-tetrahydro-2,7-naphthyridine-3-carboxamido)-[1,1′-biphenyl]-3-yl)carbamoyl)-7,8-dihydro-1,6-naphthyridin-6(5H)-yl)ethyl)bicyclo[2.2.1]heptane-1-carboxylic acid], the EC50 was 0.381 µM.

As for `Cn1c(C(=O)Nc2cccc(-c3cccc(NC(=O)c4cc5c(cn4)CN(C4CCC4)CC5)c3Cl)c2Cl)nc2c1CCN(CCC13CCC(C(=O)O)(CC1)C3)C2` [Example 5, 4-(2-(2-((2,2′-dichloro-3′-(7-cyclobutyl-5,6,7,8-tetrahydro-2,7-naphthyridine-3-carboxamido)-[1,1′-biphenyl]-3-yl)carbamoyl)-1-methyl-1,4,6,7-tetrahydro-5H-imidazo[4,5-c]pyridin-5-yl)ethyl)bicyclo [2.2.1]heptane-1-carboxylic acid], the EC50 is 0.108 µM. In the case of `CCOC(=O)[C@@H](CO)NCc1cnc2c(Nc3cccc(-c4cccc(/C=C(\F)c5cc6c(cn5)CN(C[C@@H](C)O)CC6)c4Cl)c3Cl)nccc2c1` [Example 72, ethyl ((8-((2,2′-dichloro-3′-((Z)-2-fluoro-2-(7-((R)-2-hydroxypropyl)-5,6,7,8-tetrahydro-2,7-naphthyridin-3-yl)vinyl)-[1,1′-biphenyl]-3-yl)amino)-1,7-naphthyridin-3-yl)methyl)-D-serinate] it was 1.43 µM. Under `Cn1c(C(=O)Nc2cccc(-c3cccc(NC(=O)c4cc5c(cn4)CN(CC4(O)CC4)CC5)c3Cl)c2Cl)nc2c1CCN(CCC13CCC(C(=O)O)(CC1)C3)C2` [Example 62, 4-(2-(2-((2,2′-dichloro-3′-(7-((1-hydroxycyclopropyl)methyl)-5,6,7,8-tetrahydro-2,7-naphthyridine-3-carboxamido)-[1,1′-biphenyl]-3-yl)carbamoyl)-1-methyl-1,4,6,7-tetrahydro-5H-imidazo[4,5-c]pyridin-5-yl)ethyl)bicyclo[2.2.1]heptane-1-carboxylic acid] stands 0.0763 µM. Consider `CC(C)N1CCc2cc(C(=O)Nc3cccc(-c4cccc(NC(=O)c5cc6c(cn5)CN(CCC57CCC(C(=O)O)(CC5)C7)CC6)c4Cl)c3Cl)ncc2C1` [Example 67, 4-(2-(6-((2,2′-dichloro-3′-(7-isopropyl-5,6,7,8-tetrahydro-2,7-naphthyridine-3-carboxamido)-[1,1′-biphenyl]-3-yl)carbamoyl)-3,4-dihydro-2,7-naphthyridin-2(1H)-yl)ethyl)bicycio[2.2.1]heptane-1-carboxylic acid], for which the EC50 was determined as 1.66 µM. Consider `C[C@@H](O)CN1CCc2cc(/C(F)=C/c3cccc(-c4cccc(Nc5nccc6cc(CN[C@H](CO)C(=O)O)cnc56)c4Cl)c3Cl)ncc2C1` [Example 70, ((8-((2,2′-dichloro-3′-((Z)-2-fluoro-2-(7-((R)-2-hydroxypropyl)-5,6,7,8-tetrahydro-2,7-naphthyridin-3-yl)vinyl)-[1,1′-biphenyl]-3-yl)amino)-1,7-naphthyridin-3-yl)methyl)-D-serine], for which the EC50 was determined as 0.946 µM. Consider `C[C@@H](O)CN1CCc2cc(C(=O)Nc3cccc(-c4cccc(NC(=O)c5nc6c(n5C)CCN(CCC57CCC(C(=O)O)(CC5)C7)C6)c4Cl)c3Cl)ncc2C1` [Example 8, (R)-4-(2-(2-((2,2′-dichloro-3′-(7-(2-hydroxypropyl)-5,6,7,8-tetrahydro-2,7-naphthyridine-3-carboxamido)-[1,1′-biphenyl]-3-yl)carbamoyl)-1-methyl-1,4,6,7-tetrahydro-5H-imidazo[4,5-c]pyridin-5-yl)ethyl)bicyclo[2.2.1]heptane-1-carboxylic acid], for which the EC50 was found to be 0.0598 µM. With `Cn1c(C(=O)Nc2cccc(-c3cccc(NC(=O)c4cc5c(cn4)CN(C4CCC(C)(C(=O)O)CC4)CC5)c3Cl)c2Cl)nc2c1CCN(CCC13CCC(C(=O)O)(CC1)C3)C2` (centres unmarked) [Example 65, 4-(2-(2-((3′-(7-(4-carboxy-4-methylcyclohexyl)-5,6,7,8-tetrahydro-2,7-naphthyridine-3-carboxamido)-2,2′-dichloro-[1,1′-biphenyl]-3-yl)carbamoyl)-1-methyl-1,4,6,7-tetrahydro-5H-imidazo[4,5-c]pyridin-5-yl)ethyl)bicyclo[2.2.1]heptane-1-carboxylic acid], the EC50 was 0.122 µM. In the case of `CC(C)N1CCc2cc(C(=O)Nc3cccc(-c4cccc(NC(=O)c5ccc6c(n5)CN(CCC57CCC(C(=O)O)(CC5)C7)CC6)c4Cl)c3Cl)ncc2C1` [Example 68, 4-(2-(2-((2,2′-dichloro-3′-(7-isopropyl-5,6,7,8-tetrahydro-2,7-yridine-3-carboxamido)-[1,1′-biphenyl]-3-yl)carbamoyl)-5,8-dihydro-1,7-naphthyridin-7(6H)-yl)ethyl)bicyclo[2.2.1]heptane-1-carboxylic acid], the EC50 came to 0.177 µM. As to `CCOC(=O)[C@@H](CO)NCc1cnc2c(Nc3cccc(-c4cccc(/C=C(\F)c5cc6c(cn5)CN(C(C)C)CC6)c4Cl)c3Cl)nccc2c1` [Example 73, ethyl (Z)-((8-((2,2′-dichloro-3′-(2-fluoro-2-(7-isopropyl-5,6,7,8-tetrahydro-2,7-naphthyridin-3-yl)vinyl)-[1,1′-biphenyl]-3-yl)amino)-1,7-naphthyridin-3-yl)methyl)-D-serinate], the EC50 came out at 7.64 µM.

As to `Cn1c(C(=O)Nc2cccc(-c3cccc(NC(=O)c4cc5c(cn4)CN([C@H]4CC[C@@H](O)CC4)CC5)c3Cl)c2Cl)nc2c1CCN(CCC13CCC(C(=O)O)(CC1)C3)C2` [Example 12, 4-(2-(2-((2,2′-dichloro-3′-(7-((1S,4S)-4-hydroxycyclohexyl)-5,6,7,8-tetrahydro-2,7-naphthyridine-3-carboxamido)-[1,1′-biphenyl]-3-yl)carbamoyl)-1-methyl-1,4,6,7-tetrahydro-5H-imidazo[4,5-c]pyridin-5-yl)ethyl)bicyclo[2.2.1]heptane-1-carboxylic acid], the EC50 came to 0.114 µM.
